Results from patent US11414416B1, “Compounds and uses thereof” (Foghorn Therapeutics Inc., priority 2019, dated 2022).

Target: Nanoluciferase-BRD9 fusion protein (Homo sapiens (Human), UniProt Q9H8M2)
Experiment: SYO1 BRD9 NanoLuc degradation assay
Format: cell-based
Settings: Table 5A; SYO-1 cells expressing 3×FLAG-NLuc-BRD9, 6 hours; read-out: SYO1 BRD9-NanoLuc degradation IC50
Description: Procedure: A stable SYO-1 cell line expressing 3×FLAG-NLuc-BRD9 was generated. On day 0 cells were seeded in 30 μL media into each well of 384-well cell culture plates. The seeding density was 8000 cells/well. […] Subsequently plates were incubated for 6 hours in a standard tissue culture incubator and equilibrated at room temperature for 15 minutes. Nanoluciferase activity was measured by adding 15 μL of freshly prepared Nano-Glo Luciferase Assay Reagent (Promega N1130), shaking the plates for 10 minutes and reading the bioluminescence using an EnVision reader.
DMSO treated cells are employed as High Control (HC) and 1 μM of a known BRD9 degrader standard treated cells are employed as Low Control (LC).

Nanoluciferase-BRD9 fusion protein, sequence (Q9H8M2 whole entry, the tested form may be a part): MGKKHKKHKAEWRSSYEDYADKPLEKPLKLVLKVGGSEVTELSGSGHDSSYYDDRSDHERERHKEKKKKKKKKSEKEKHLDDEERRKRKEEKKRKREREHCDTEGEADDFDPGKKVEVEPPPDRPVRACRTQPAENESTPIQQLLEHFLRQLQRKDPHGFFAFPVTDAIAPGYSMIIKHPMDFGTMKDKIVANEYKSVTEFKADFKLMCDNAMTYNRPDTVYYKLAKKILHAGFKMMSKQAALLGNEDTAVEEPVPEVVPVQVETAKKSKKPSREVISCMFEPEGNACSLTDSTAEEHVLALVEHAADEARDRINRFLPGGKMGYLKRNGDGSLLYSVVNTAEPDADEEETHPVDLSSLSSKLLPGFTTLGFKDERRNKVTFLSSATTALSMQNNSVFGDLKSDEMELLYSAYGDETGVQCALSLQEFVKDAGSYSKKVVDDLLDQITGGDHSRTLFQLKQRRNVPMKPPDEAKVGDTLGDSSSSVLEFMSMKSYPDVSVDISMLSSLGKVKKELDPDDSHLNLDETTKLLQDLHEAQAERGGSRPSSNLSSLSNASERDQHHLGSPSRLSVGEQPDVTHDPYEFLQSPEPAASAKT

Row | Compound | DC50 [nM]
1 | COc1cc(-c2cn(C)c(=O)c3cnccc23)cc(OC)c1CN1CC2(CC(C(=O)NCCCCCCNc3cccc4c3C(=O)N(C3CCC(=O)NC3=O)C4=O)C2)C1 (stereo not shown) [Compound D21] | > 1000
2 | COc1cc(-c2cn(C)c(=O)c3cnccc23)cc(OC)c1CN1CC(S(=O)(=O)NCCN2CCN(c3ccc4c(c3)C(=O)N(C3CCC(=O)NC3=O)C4=O)CC2)C1 (stereo not shown) [Compound D24, 1-[[2,6-dimethoxy-4-(2-methyl-1-oxo-2,7-naphthyridin-4-yl)phenyl]methyl]-N-(2-[4-[2-(2,6-dioxopiperidin-3-yl)-1,3-dioxoisoindol-5-yl]piperazin-1-yl]ethyl)azetidine-3-sulfonamide formic acid] | 10 to 100
3 | COc1cc(-c2cn(C)c(=O)c3cnccc23)cc(OC)c1CN1CC(N(C)Cc2cccc3c2C(=O)N(C2CCC(=O)NC2=O)C3=O)C1 (stereo not shown) [Compound D28, 4-(((1-(2,6-dimethoxy-4-(2-methyl-1-oxo-1,2-dihydro-2,7-naphthyridin-4-yl)benzyl)azetidin-3-yl)(methyl)amino)methyl)-2-(2,6-dioxopiperidin-3-yl)isoindoline-1,3-dione] | 100 to 1000
4 | COc1cc(-c2cn(C)c(=O)c3cnccc23)cc(OC)c1CN1CCC(CCN2CCN(c3ccc4c(c3)C(=O)N(C3CCC(=O)NC3=O)C4=O)CC2)CC1 (stereo not shown) [Compound D42, 5-(4-(2-(1-(2,6-dimethoxy-4-(2-methyl-1-oxo-1,2-dihydro-2,7-naphthyridin-4-yl)benzyl)piperidin-4-yl)ethyl)piperazin-1-yl)-2-(2,6-dioxopiperidin-3-yl)isoindoline-1,3-dione formic acid] | < 10
5 | COc1cc(-c2cn(C)c(=O)c3cnccc23)cc(OC)c1CN1CC2(CN(CCOc3ccc4c(c3)C(=O)N(C3CCC(=O)NC3=O)C4=O)C2)C1 (stereo not shown) [Compound D43, 5-[2-(6-[[2,6-Dimethoxy-4-(2-methyl-1-oxo-2,7-naphthyridin-4-yl)phenyl]methyl]-2,6-diazaspiro[3.3]heptan-2-yl)ethoxy]-2-(2,6-dioxopiperidin-3-yl)isoindole-1,3-dione formic acid] | 100 to 1000
6 | COc1cc(-c2cn(C)c(=O)c3cnccc23)cc(OC)c1CN1CCN(CCCCCOc2ccc3c(c2)C(=O)N(C2CCC(=O)NC2=O)C3=O)CC1 (stereo not shown) [Compound D44, 5-((5-(4-(2,6-dimethoxy-4-(2-methyl-1-oxo-1,2-dihydro-2,7-naphthyridin-4-yl)benzyl)piperazin-1-yl)pentyl)oxy)-2-(2,6-dioxopiperidin-3-yl)isoindoline-1,3-dione formic acid] | < 10
7 | COc1cc(-c2cn(C)c(=O)c3cnccc23)cc(OC)c1CN(C)CCOCCN1CCN(c2ccc3c(c2)C(=O)N(C2CCC(=O)NC2=O)C3=O)CC1 (stereo not shown) [Compound D46, 5-(4-(2-(2-((2,6-dimethoxy-4-(2-methyl-1-oxo-1,2-dihydro-2,7-naphthyridin-4-yl)benzyl)(methyl)amino)ethoxy)ethyl)piperazin-1-yl)-2-(2,6-dioxopiperidin-3-yl)isoindoline-1,3-dione formic acid] | < 10

Next, values leading:

Row | DC50 [nM] | Compound
8 | < 10 | COc1cc(-c2cn(C)c(=O)c3cnccc23)cc(OC)c1CN1CC[C@H]1C(=O)NCCCCCCCCNc1cccc2c1C(=O)N([C@@H]1CCC(=O)NC1=O)C2=O (stereo in doubt) [Compound D18, (2S)-1-((2,6-dimethoxy-4-(2-methyl-1-oxo-2,7-naphthyridin-4-yl)phenyl)methy)-N-(8-((2-((R)-2,6-dioxopiperidin-3-yl)-1,3-dioxoisoindol-4-yl)amino)octyl) azetidine-2-carboxamide]
9 | < 10 | COc1cc(-c2cc(C)c(=O)n(C)c2)cc(OC)c1CN1CC(C(=O)NCCCCCCCCNc2cccc3c2C(=O)N(C2CCC(=O)NC2=O)C3=O)C1 (stereo not shown) [Compound D16, 2-(2,6-dihydroxypiperidin-3-yl)-4-[(8-[[hydroxy(1-[[4-(6-hydroxy-1,5-dimethyl-1,6-dihydropyridin-3-yl)-2,6-dimethoxyphenyl]methyl]azetidin-3-yl)methyl]amino]octyl)amino]-2,3-dihydro-1H-isoindole-1,3-diol formic acid]
10 | < 10 | COc1cc(-c2cn(C)c(=O)c3cnccc23)cc(OC)c1CN1CC(N)(C(=O)NCCCCCCCCNc2cccc3c2C(=O)N(C2CCC(=O)NC2=O)C3=O)C1 (stereo not shown) [Compound D17, 3-amino-1-[[2,6-dimethoxy-4-(2-methyl-1-oxo-1,2-dihydro-2,7-naphthyridin-4-yl)phenyl]methyl]-N-(8-[[2-(2,6-dioxopiperidin-3-yl)-1,3-dioxo-2,3-dihydro-1H-isoindol-4-yl]amino]octyl)azetidine-3-carboxamide]
11 | < 10 | COc1cc(-c2cn(C)c(=O)c3cnccc23)cc(OC)c1CN1CC[C@H]1C(=O)NCCCCCCCCNc1cccc2c1C(=O)N([C@H]1CCC(=O)NC1=O)C2=O [Compound D19, (2S)-1-((2,6-dimethoxy-4-(2-methyl-1-oxo-2,7-naphthyridin-4-yl)phenyl)methyl)-N-(8-((2-((S)-2,6-dioxopiperidin-3-yl)-1,3-dioxoisoindol-4-yl)amino)octyl) azetidine-2-carboxamide]
12 | < 10 | COc1cc(-c2cn(C)c(=O)c3cnccc23)cc(OC)c1CN1CC2(CC(C(=O)NCCCCCCCCNc3cccc4c3C(=O)N(C3CCC(=O)NC3=O)C4=O)C2)C1 (stereo not shown) [Compound D20]
13 | 10 to 100 | COc1cc(-c2cn(C)c(=O)c3cnccc23)cc(OC)c1CN1CC(S(=O)(=O)NCCCCNc2ccc3c(c2)C(=O)N(C2CCC(=O)NC2=O)C3=O)C1 (stereo not shown) [Compound D22, 1-[[2,6-dimethoxy-4-(2-methyl-1-oxo-1,2-dihydro-2,7-naphthyridin-4-yl)phenyl]methyl]-N-(4-[[2-(2,6-dioxopiperidin-3-yl)-1,3-dioxo-2,3-dihydro-1H-isoindol-5-yl]amino]butyl) azetidine-3-sulfonamide formic acid]
14 | 10 to 100 | COc1cc(-c2cn(C)c(=O)c3cnccc23)cc(OC)c1CN1CC(C(=O)N(C)Cc2cccc3c2C(=O)N(C2CCC(=O)NC2=O)C3=O)C1 (stereo not shown) [Compound D29, 1-(2,6-dimethoxy-4-(2-methyl-1-oxo-1,2-dihydro-2,7-naphthyridin-4-yl)benzyl)-N-((2-(2,6-dioxopiperidin-3-yl)-1,3-dioxoisoindolin-4-yl)methyl)-N-methylazetidine-3-carboxamide]
15 | < 10 | COc1cc(-c2cn(C)c(=O)c3cnccc23)cc(OC)c1CN1CC(S(=O)(=O)NCCOCCNc2cccc3c2C(=O)N(C2CCC(=O)NC2=O)C3=O)C1 (stereo not shown) [Compound D45, 1-[[2,6-dimethoxy-4-(2-methyl-1-oxo-2,7-naphthyridin-4-yl)phenyl]methyl]-N-[2-(2-[[2-(2,6-dioxopiperidin-3-yl)-1,3-dioxoisoindol-4-yl]amino]ethoxy)ethyl]azetidine-3-sulfonamide]
16 | < 10 | COc1cc(-c2cn(C)c(=O)c3cnccc23)cc(OC)c1CN1CCC2(CC1)CN(CCCCCOc1ccc3c(c1)C(=O)N(C1CCC(=O)NC1=O)C3=O)CCO2 (stereo not shown) [Compound D47, 5-[[5-(9-[[2,6-dimethoxy-4-(2-methyl-1-oxo-2,7-naphthyridin-4-yl)phenyl]methyl]-1-oxa-4,9-diazaspiro[5.5]undecan-4-yl)pentyl]oxy]-2-(2,6-dioxopiperidin-3-yl)isoindole-1,3-dione formic acid]
